According to the supplement of paper PMC12613149:

What was measured:
[1] = collision cross section (TIMS, N2 drift gas) of the primary ion; higher = larger gas-phase ion size
[2] = reversed-phase LC retention time (C18, 15 min MeOH gradient); higher = more hydrophobic / later elution
[3] = ionization mode: ESI+, ion species: [M+H]+
[4] = ionization mode: ESI-, ion species: [M-H]-
[5] = ionization mode: ESI+, ion species: [M]+

| SMILES | collision cross section [1, 3] [Å²] | reversed-phase LC retention time [2, 3] [min] | collision cross section [1, 4] [Å²] | reversed-phase LC retention time [2, 4] [min] | collision cross section [1, 5] [Å²] | reversed-phase LC retention time [2, 5] [min] |
| --- | --- | --- | --- | --- | --- | --- |
| CCCCCOC(=O)c1ccccc1C(=O)OCCCCC [Di-n-pentylphthalate] | 182.77 | 17.4 |  |  |  |  |
| CC(Cc1ccc(C(C)(C)C)cc1)CN1CCCCC1 (centres undefined) [Fenpropidin] | 166.93 | 13.6 |  |  |  |  |
| CCCCC(CC)COC(=O)CC(C(=O)OCC(CC)CCCC)S(=O)(=O)O (centres undefined) [Dioctylsulfosuccinate] | 222.09 | 17.1 | 208.23 | 17.1 |  |  |
| Oc1ccc(C(c2ccccc2)(c2ccccc2)c2ccc(O)cc2)cc1 [Bisphenol BP] |  |  | 196.58 | 16 |  |  |
| COc1ccc2c(c1)[C@]13CCCC[C@@H]1[C@H](C2)N(C)CC3 [Dextromethorphan] | 166.66 | 11.4 |  |  |  |  |
| CN1C(=O)C(O)N=C(c2ccccc2)c2cc(Cl)ccc21 (centres undefined) [Temazepam] | 167.53 | 13.4 |  |  |  |  |
| COc1cc2ccc(=O)oc2cc1O [Scopoletin] |  |  | 133.5 | 7.44 |  |  |
| c1ccc2nc3ccccc3cc2c1 [Acridine] | 132.33 | 8.73 |  |  |  |  |
| Cc1cnc2ccc3c(nc(N)n3C)c2n1 [2-Amino-3,8-dimethylimidazo-[4,5-f]quinoxaline (MeIQx)] | 147.79 | 7.67 | 147.68 | 9.09 |  |  |
| CCN(CC)CC(=O)Nc1c(C)cccc1C [Lidocaine] | 156.14 | 8.29 |  |  |  |  |
| O=S(=O)(O)C(F)(F)C(F)(F)C(F)(F)C(F)(F)C(F)(F)C(F)(F)C(F)(F)C(F)(F)F [Perfluorooctanesulfonic acid] |  |  | 169.04 | 15.4 |  |  |
| C#CCN1C(=O)COc2cc(F)c(N3C(=O)C4=C(CCCC4)C3=O)cc21 [Flumioxazin] | 188.98 | 13.5 |  |  |  |  |
| N#Cc1nn(-c2c(Cl)cc(C(F)(F)F)cc2Cl)c(N)c1SC(F)(F)F [Fipronil sulfide] |  |  | 173.94 | 15.8 |  |  |
| O=C(O)C(F)(F)C(F)(F)C(F)(F)C(F)(F)F [Perfluoropentanoic acid] |  |  | 129.75 | 10.9 |  |  |
| CCCCCCCCCCCCc1ccccc1S(=O)(=O)O [Dodecylbenzenesulfonic acid] |  |  | 185.13 | 17.3 |  |  |
| Cc1cccc(Nc2ccncc2S(=O)(=O)NC(=O)NC(C)C)c1 [Torasemide] | 188.49 | 11.5 | 184.59 | 12.4 |  |  |

| SMILES | collision cross section [1, 3] [Å²] | reversed-phase LC retention time [2, 3] [min] | collision cross section [1, 4] [Å²] | reversed-phase LC retention time [2, 4] [min] | collision cross section [1, 5] [Å²] | reversed-phase LC retention time [2, 5] [min] |
| --- | --- | --- | --- | --- | --- | --- |
| CC(C)(C)C(O)(CCc1ccc(Cl)cc1)Cn1cncn1 (centres undefined) [Tebuconazole] | 168.02 | 15.5 |  |  |  |  |
| C[C@@H]1NC(C)(C)CO[C@@]1(O)c1cccc(Cl)c1 [(S,S)-Hydroxybupropion] | 159.75 | 9.89 | 159.63 | 13.5 |  |  |
| N#Cc1ccc(C/C(=N\NC(=O)Nc2ccc(OC(F)(F)F)cc2)c2cccc(C(F)(F)F)c2)cc1 [Metaflumizone] | 213.54 | 16.8 | 221.65 | 17.3 |  |  |
| Oc1c(Cl)c(Cl)c(Cl)c(Cl)c1Cl [Pentachlorophenol] |  |  | 137.44 | 13.8 |  |  |
| CCCCOCCOCCOCCO [Triethylene Glycol Monobutyl Ether] | 143.71 | 11.2 |  |  |  |  |
| Cc1ccc(N)cc1Cl [3-Chloro-4-methylaniline] | 148.73 | 12.2 |  |  |  |  |
| O=Cc1c[nH]c2ccccc12 [Indole-3-carboxyaldehyde] |  |  | 122.39 | 9.34 |  |  |
| Nc1ccc(S(=O)(=O)Nc2nccs2)cc1 [Sulfathiazole] | 153.27 | 6.39 | 152.72 | 5.71 |  |  |
| COC(=O)Nc1nc2ccccc2[nH]1 [Carbendazim] | 137.16 | 7.33 |  |  |  |  |
| CCCCCCCCCCCCCC[N+](C)(C)C [Tetradecyltrimethylammonium] |  |  |  |  | 187.45 | 16.5 |
| CN[C@H]1CC[C@@H](c2ccc(Cl)c(Cl)c2)c2ccccc21 [Sertraline] | 168.55 | 13.8 |  |  |  |  |
| CCCCCCCCCCCC(=O)N(CCO)CCO [Lauryl diethanolamide] | 185.96 | 16.4 |  |  |  |  |
| CCCCCCCCSc1nc(Nc2cc(C(C)(C)C)c(O)c(C(C)(C)C)c2)nc(SCCCCCCCC)n1 | 263.3 | 21 |  |  |  |  |
| Nc1nc(N)nc(NC2CC2)n1 [Cyromazine] | 134.76 | 3.4 |  |  |  |  |
| CNCCC(Oc1cccc2ccccc12)c1cccs1 (centres undefined) [Duloxetine] | 171.35 | 13 |  |  |  |  |
